ChEMBL document CHEMBL1140953, “Anthracene based compounds as new L-type Ca2+ channel blockers: design, synthesis, and full biological profile” (J Med Chem, 2009)
Activity calls are given as the source filed them. The rule behind the calls is not given here.

Experiments:
Rattus norvegicus [1] = species on record: Rattus norvegicus; experiment: Vasorelaxant activity in Sprague-Dawley rat caudal artery ring assessed as reduction of phenylephrine-induced muscle contractions at 50 uM in Ca2+-free physiological salt solution; format: functional, tissue-based
Rattus norvegicus [2] = species on record: Rattus norvegicus; experiment: Vasorelaxant activity in Sprague-Dawley rat caudal artery ring assessed as reduction of caffeine-induced muscle contractions at 50 uM; format: functional, tissue-based
[3] = (§1) Displacement of (-)-[3H]devapamil from L-type calcium channel in rabbit skeletal muscle cells; parameters: species or system Oryctolagus cuniculus
[4] = target: T1, Voltage-gated L-type calcium channel (Rattus norvegicus, UniProt P22002+Q02485+P27732); experiment: Inhibition of L-type calcium channel in Sprague-Dawley rat caudal artery smooth muscle cells assessed as decrease in amplitude at 15 uM by whole cell patch clamp method; details: TDE = time-dependent effect
[5] = target: T1, Voltage-gated L-type calcium channel; experiment: Inhibition of L-type calcium channel in Sprague-Dawley rat caudal artery smooth muscle cells assessed as inhibition of peak inward current at 15 uM by whole cell patch clamp method at -20 to 40 mV voltage
[6] = target: Voltage-dependent L-type calcium channel subunit alpha-1C (Mus musculus, UniProt Q01815); experiment: Inhibition of mouse brain L-type Cav1.2 channel by radioligand binding assay
Sequence of Voltage-dependent L-type calcium channel subunit alpha-1C (Q01815 whole entry): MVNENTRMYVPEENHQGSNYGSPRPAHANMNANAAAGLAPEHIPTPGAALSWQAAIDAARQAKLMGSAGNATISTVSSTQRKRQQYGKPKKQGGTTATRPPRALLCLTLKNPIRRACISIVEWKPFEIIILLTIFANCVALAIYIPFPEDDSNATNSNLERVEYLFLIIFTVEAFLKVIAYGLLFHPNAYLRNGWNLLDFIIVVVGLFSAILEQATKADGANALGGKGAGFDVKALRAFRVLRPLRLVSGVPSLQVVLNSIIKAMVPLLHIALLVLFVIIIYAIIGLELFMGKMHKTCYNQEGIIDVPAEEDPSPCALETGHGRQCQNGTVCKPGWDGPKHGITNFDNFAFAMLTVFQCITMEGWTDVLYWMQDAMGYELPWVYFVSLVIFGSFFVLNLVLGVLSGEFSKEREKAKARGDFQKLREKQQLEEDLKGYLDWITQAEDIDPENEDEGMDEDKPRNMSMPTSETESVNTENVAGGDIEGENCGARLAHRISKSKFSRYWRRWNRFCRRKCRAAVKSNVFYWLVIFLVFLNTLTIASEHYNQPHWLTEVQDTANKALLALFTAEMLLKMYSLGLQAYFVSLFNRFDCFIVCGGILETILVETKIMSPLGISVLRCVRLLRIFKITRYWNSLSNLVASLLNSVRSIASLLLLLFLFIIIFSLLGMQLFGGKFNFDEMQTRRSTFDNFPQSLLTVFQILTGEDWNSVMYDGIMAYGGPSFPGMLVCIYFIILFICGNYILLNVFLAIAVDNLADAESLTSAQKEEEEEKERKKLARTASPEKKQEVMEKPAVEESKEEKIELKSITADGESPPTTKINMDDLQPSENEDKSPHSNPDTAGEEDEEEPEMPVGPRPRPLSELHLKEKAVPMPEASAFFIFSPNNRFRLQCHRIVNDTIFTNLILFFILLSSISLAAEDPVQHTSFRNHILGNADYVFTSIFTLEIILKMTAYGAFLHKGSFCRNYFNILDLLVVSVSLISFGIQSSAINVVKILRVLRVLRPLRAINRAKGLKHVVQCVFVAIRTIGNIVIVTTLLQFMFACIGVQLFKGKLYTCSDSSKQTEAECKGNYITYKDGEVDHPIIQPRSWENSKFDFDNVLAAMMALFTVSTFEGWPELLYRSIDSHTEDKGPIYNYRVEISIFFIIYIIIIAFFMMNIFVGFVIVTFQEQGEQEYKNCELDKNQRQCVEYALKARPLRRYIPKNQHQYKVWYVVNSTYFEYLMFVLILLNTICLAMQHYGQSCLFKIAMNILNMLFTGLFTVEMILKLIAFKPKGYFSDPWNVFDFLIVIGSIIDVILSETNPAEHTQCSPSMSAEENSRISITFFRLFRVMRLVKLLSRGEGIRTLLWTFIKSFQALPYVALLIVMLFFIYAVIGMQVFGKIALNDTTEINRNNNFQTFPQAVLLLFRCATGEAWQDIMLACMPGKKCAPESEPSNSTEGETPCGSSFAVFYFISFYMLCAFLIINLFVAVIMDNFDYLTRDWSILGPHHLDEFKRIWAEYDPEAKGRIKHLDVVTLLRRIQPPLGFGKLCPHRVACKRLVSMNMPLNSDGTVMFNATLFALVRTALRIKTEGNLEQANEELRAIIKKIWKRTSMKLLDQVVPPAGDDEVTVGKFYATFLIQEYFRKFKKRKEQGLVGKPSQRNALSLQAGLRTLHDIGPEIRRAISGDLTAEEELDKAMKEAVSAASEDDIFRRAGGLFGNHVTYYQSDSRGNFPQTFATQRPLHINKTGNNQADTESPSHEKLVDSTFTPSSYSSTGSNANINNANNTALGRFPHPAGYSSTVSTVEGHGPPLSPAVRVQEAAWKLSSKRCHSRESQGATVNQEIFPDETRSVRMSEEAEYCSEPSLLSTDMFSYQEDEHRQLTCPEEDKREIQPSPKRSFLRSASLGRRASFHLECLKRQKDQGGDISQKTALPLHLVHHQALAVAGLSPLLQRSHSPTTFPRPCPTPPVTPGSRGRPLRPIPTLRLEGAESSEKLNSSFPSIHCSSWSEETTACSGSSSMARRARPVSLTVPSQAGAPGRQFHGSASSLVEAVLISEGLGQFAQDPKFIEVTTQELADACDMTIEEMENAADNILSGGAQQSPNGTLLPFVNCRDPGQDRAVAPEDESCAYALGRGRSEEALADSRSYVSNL

[7] = target: T1, Voltage-gated L-type calcium channel; experiment: Inhibition of L-type calcium channel in Sprague-Dawley rat caudal artery smooth muscle cells by whole cell patch clamp method
Rattus norvegicus [8] = species on record: Rattus norvegicus; experiment: Vasorelaxant activity in Sprague-Dawley rat caudal artery ring assessed as reduction of caffeine-induced muscle contractions at 50 uM in Ca2+-free physiological salt solution; format: functional, tissue-based
[9] = Displacement of (+)-[3H]isradipine from L-type calcium channel in rabbit skeletal muscle cells; parameters: species or system Oryctolagus cuniculus
[10] = target: T1, Voltage-gated L-type calcium channel; experiment: Inhibition of L-type calcium channel in Sprague-Dawley rat caudal artery smooth muscle cells at 15 uM by whole cell patch clamp method at -50 mV voltage
[11] = target: T1, Voltage-gated L-type calcium channel; experiment: Inhibition of L-type calcium channel in Sprague-Dawley rat caudal artery smooth muscle cells at 15 uM by whole cell patch clamp method at 2 Hz
[12] = Vasorelaxant activity in Sprague-Dawley rat caudal artery ring assessed as reduction of KCl-induced muscle contractions at 50 uM relative to control; format: functional; parameters: scale not given: the % may be the effect or the level left
[13] = target: T1, Voltage-gated L-type calcium channel; experiment: Inhibition of L-type calcium channel in Sprague-Dawley rat caudal artery smooth muscle cells at 15 uM by whole cell patch clamp method at 4 Hz
Oryctolagus cuniculus = species on record: Oryctolagus cuniculus; experiment: as §1; details: concentration not given here
[14] = Displacement of (-)-[3H]devapamil from L-type calcium channel in rabbit smooth skeletal cells relative to verapamil

Compound | Activity (Rattus norvegicus [1]) | Activity (Rattus norvegicus [2]) | also measured
O=C1NC(=O)C2C3c4ccccc4C(c4ccccc43)C12 (configuration not stated) | Active | Active | –
O=C1NC(=O)C2C3c4ccccc4C(c4ccc(Cl)cc43)C12 (configuration not stated) | inactive | – | IC50 [3]: 5.6 µM; Activity [4]: tde; Activity [5]: Active; IC50 [6]: 19.4 µM; IC50 [7]: 16.5 µM; Activity ([7]; rat): Dose-dependent effect; Activity (Rattus norvegicus [8]): inactive; IC50 [9]: 6.3 µM; Activity [10]: Active; Activity [11]: Active; Activity [12]: 100%; Activity [13]: Active
Cc1ccc2c(c1)C1c3ccccc3C2C2C(=O)NC(=O)C12 (configuration not stated) | Active | Active | Activity [12]: 90%
O=CC12c3ccccc3C(c3ccccc31)C1C(=O)NC(=O)C12 (configuration not stated) | Active | Active | –
N#CC12c3ccccc3C(c3ccccc31)C1C(=O)NC(=O)C12 (configuration not stated) | Active | Active | –
CC12c3ccccc3C(c3ccccc31)C1C(=O)NC(=O)C12 (configuration not stated) | Active | Active | –
O=C1NC(=O)C2C1C1c3ccccc3C2(CO)c2ccccc21 (configuration not stated) | Active | Active | –
COc1ccc(CCN(C)CCCC(C#N)(c2ccc(OC)c(OC)c2)C(C)C)cc1OC (configuration not stated) [VERAPAMIL] | – | – | inhibition (Oryctolagus cuniculus): 100%; IC50 [14]: 0.0602 µM
O=C1NC(=O)C2C1C1c3ccccc3C2([N+](=O)[O-])c2ccccc21 (configuration not stated) | Active | Active | –
O=C1NC(=O)C2C1C1c3ccccc3C2(Cl)c2ccccc21 (configuration not stated) | Active | Active | –
C#CCN1C(=O)C2C3c4ccccc4C(c4ccccc43)C2C1=O (configuration not stated) | Active | Active | –
O=C1NC(=O)C2C3c4ccccc4C(c4cccc(Cl)c43)C12 (configuration not stated) | Active | Active | Activity [12]: 90%
